Measurements as given in patent publication US4746648A, “Peptide derivatives which inhibit renin and acid proteases” (Sanofi; Institut National de la Recherche Medicale, priority 1985, dated 1988).
Starred links: 1 amine or outer side, 2 acyl side, 3 side chain; linkers in the order of their positions; H or OH if unused. Non-standard residues stand in square brackets, D forms with d. Residues, ends and D or L forms follow the SMILES beside them. ξ: configuration not given here. *: point of attachment. X9 = CCn1cnc(C[C@H](N[*:1])C(=O)[*:2])c1; His(τ-Me) = Cn1cnc(C[C@H](N)C(=O)O)c1; Sta = CC(C)C[C@H](N)[C@@H](O)CC(=O)O; X10 = Cc1nc(C(N[*:1])C(=O)[*:2])cs1; Gly(cPent) = N[C@H](C(=O)O)C1CCCC1; Phg = N[C@H](C(=O)O)c1ccccc1; ξ3Pal = NC(Cc1cccnc1)C(=O)O; ξ4Pal = NC(Cc1ccncc1)C(=O)O; Isovaleryl = CC(C)CC(=O)*; Boc = CC(C)(C)OC(=O)*; OBn = c1ccc(CO*)cc1; X4 = c1ccc(C*)nc1; tBu = CC(C)(C)*

Target: T1, human plasma renin activity (PRA) (Homo sapiens, UniProt P00797)
T1 construct: from tissue; host or cells: human plasma pool
T1 sequence (P00797 67-406): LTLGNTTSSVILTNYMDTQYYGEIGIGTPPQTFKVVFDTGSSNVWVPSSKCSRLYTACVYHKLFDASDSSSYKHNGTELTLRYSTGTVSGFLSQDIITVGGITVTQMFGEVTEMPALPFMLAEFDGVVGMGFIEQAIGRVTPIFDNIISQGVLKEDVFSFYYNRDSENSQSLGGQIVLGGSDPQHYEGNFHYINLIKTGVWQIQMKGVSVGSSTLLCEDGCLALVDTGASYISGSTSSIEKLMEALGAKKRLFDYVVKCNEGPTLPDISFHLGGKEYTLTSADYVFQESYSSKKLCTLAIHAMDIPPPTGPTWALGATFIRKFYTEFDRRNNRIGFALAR
Experiment: Inhibition of human plasma renin activity (PRA) in vitro, angiotensin I released measured by radioimmunoassay
Format: biochemical
Details: for IC50: read-out: Inhibition of human PRA -log IC50 M pH 7.4 (converted); for Inhibition of human PRA -log IC50 M pH 7.4: human plasma pool rich in renin, 60 min at 37° C., phosphate buffer pH 7.4
Description: Human plasma contains the substrate angiotensinogen and the enzyme renin. […] An inhibitor of the conversion enzyme, phenylmethylsulfonyl fluoride (PMSF), is added to the incubation medium.
420 microliters of human plasma
11 to 50 microliters of the product to be studied, at variable concentrations
A solution of acetic acid in methanol (19/1 by volume) and a solution of sodium hydroxide in methanol (2/1 by volume) are prepared. In a mixture of equal volumes of these 2 solutions, a 0.001M stock solution of the peptide is prepared. The subsequent dilutions of the peptide are then made up in the phosphate buffer.
The results are expressed by their logarithmic value (-log IC50).

| Molecule | IC50 | other results |
| --- | --- | --- |
| COC(=O)C[C@H](O)[C@H](CC(C)C)NC(=O)[C@H](C)NC(=O)C[C@H](O)[C@H](CC(C)C)NC(=O)[C@@H](NC(=O)[C@H](Cc1ccccc1)NC(=O)OC(C)(C)C)c1ccccc1 [SR 42823, Boc--Phe--Phg--Sta--Ala--Sta--OMe] (Boc-F[Phg][Sta]A[Sta]-OMe) | 93.3 nM | – |
| COC(=O)[C@H](CC(C)C)NC(=O)[C@H](C)NC(=O)C[C@H](O)[C@H](CC(C)C)NC(=O)[C@H](CC(=O)OCc1ccccc1)NC(=O)[C@H](Cc1ccccc1)NC(=O)OC(C)(C)C [SR 42926, Boc-Phe-(PhCH2)Asp-Sta-Ala-Leu-OMe] (Boc-FD(OBn)[Sta]AL-OMe) | 398 nM | – |
| COC(=O)[C@H](CC(C)C)NC(=O)[C@H](C)NC(=O)C[C@H](O)[C@H](CC(C)C)NC(=O)C(NC(=O)[C@H](Cc1ccccc1)NC(=O)OC(C)(C)C)c1csc(C)n1 (stereo partly drawn) [SR 43059, Boc-Phe-(2-methylthiazol-4-yl)Gly-Sta-Ala-Leu-OMe] (Boc-F[X10][Sta]AL-OMe) | 3020 nM | – |
| COC(=O)C[C@H](O)[C@H](CC(C)C)NC(=O)[C@H](C)NC(=O)C[C@H](O)[C@H](CC(C)C)NC(=O)C(Cc1cccnc1)NC(=O)[C@H](Cc1ccccc1)NC(=O)OC(C)(C)C (stereo partly drawn) [SR 43429, Boc-Phe-(Pyr-3)Ala-Sta-Ala-Sta-OMe] (Boc-F[ξ3Pal][Sta]A[Sta]-OMe) | 417 nM | – |
| COC(=O)C[C@H](O)[C@H](CC(C)C)NC(=O)[C@H](C)NC(=O)C[C@H](O)[C@H](CC(C)C)NC(=O)[C@@H](NC(=O)[C@H](Cc1ccccc1)NC(=O)OC(C)(C)C)C1CCCC1 [SR 43554, Boc--Phe--Cpg--Sta--Ala--Sta--OMe] (Boc-F[Gly(cPent)][Sta]A[Sta]-OMe) | 37.2 nM | – |
| COC(=O)C[C@H](O)[C@H](CC(C)C)NC(=O)[C@H](C)NC(=O)C[C@H](O)[C@H](CC(C)C)NC(=O)[C@H](COCc1ccccn1)NC(=O)[C@H](Cc1ccccc1)NC(=O)OC(C)(C)C [SR 43555, Boc--Phe--((Pyr--2)CH2 O)Ser--Sta--Ala--Sta--OMe] (Boc-FS(X4)[Sta]A[Sta]-OMe) | 316 nM | – |
| Boc--Phe--(1-methylimidazol-2-yl)Ala--AHPPA--Ala--Sta--OCH3 [SR 43428] | – | Inhibition of human PRA -log IC50 M pH 7.4: 6.16 -log M |
| Boc-Phe-(Pyr-2)Ala-Sta-Leu-Phe-OMe [SR 43150] | – | Inhibition of human PRA -log IC50 M pH 7.4: 5.21 -log M |
| Boc-Phe-(Pyr-2)Ala-Sta-Leu-Phe-OMe [SR 43151] | – | Inhibition of human PRA -log IC50 M pH 7.4 (listed as 41 151): 6.66 -log M |

The next lines start with results.

| IC50 | Molecule | other results |
| --- | --- | --- |
| 316 nM | COC(=O)[C@H](Cc1ccccc1)NC(=O)[C@H](CC(C)C)NC(=O)C[C@H](O)[C@H](CC(C)C)NC(=O)C(Cc1cccnc1)NC(=O)[C@H](Cc1ccccc1)NC(=O)OC(C)(C)C (stereo partly drawn) [SR 43064, Boc-Phe-(Pyr-3)Ala-Sta-Leu-Phe-OMe] (Boc-F[ξ3Pal][Sta]LF-OMe) | – |
| 1320 nM | COC(=O)[C@H](Cc1ccccc1)NC(=O)[C@H](CC(C)C)NC(=O)C[C@H](O)[C@H](CC(C)C)NC(=O)C(Cc1ccncc1)NC(=O)[C@H](Cc1ccccc1)NC(=O)OC(C)(C)C (stereo partly drawn) [SR 43144, Boc-Phe-(Pyr-4)Ala-Sta-Leu-Phe-OMe] (Boc-F[ξ4Pal][Sta]LF-OMe) | – |
| 2140 nM | COC(=O)C[C@H](O)[C@H](CC(C)C)NC(=O)[C@H](C)NC(=O)C[C@H](O)[C@H](CC(C)C)NC(=O)[C@H](COC(C)(C)C)NC(=O)[C@H](Cc1ccccc1)NC(=O)OC(C)(C)C [SR 43297, Boc--Phe--((CH3)3 CO)Ser--Sta--Ala--Sta--OMe] (Boc-FS(tBu)[Sta]A[Sta]-OMe) | – |
| 64.6 nM | CCn1cnc(C[C@H](NC(=O)[C@H](Cc2ccccc2)NC(=O)OC(C)(C)C)C(=O)N[C@@H](CC(C)C)[C@@H](O)CC(=O)N[C@@H](C)C(=O)N[C@@H](CC(C)C)[C@@H](O)CC(=O)OC)c1 [SR 43391, Boc--Phe--(tauEt)His--Sta--Ala--Sta--OMe] (Boc-F[X9][Sta]A[Sta]-OMe) | – |
| 151 nM | CC(C)CC(=O)N[C@@H](Cc1ccccc1)C(=O)N[C@@H](Cc1cn(C)cn1)C(=O)N[C@@H](CC(C)C)[C@@H](O)CC(=O)N[C@@H](C)C(=O)N[C@@H](CC(C)C)[C@@H](O)CC(=O)O [SR 43761, iVa--Phe--(tauMe)His--Sta--Ala--Sta--OH] (Isovaleryl-F[His(τ-Me)][Sta]A[Sta]-OH) | – |
